Assays:
[1] = Static thermostability (GARDNER method), rigid PVC sheets, 210° C., 0.3 part stabilizer; details: for thermostabilizing power compared to 2-phenyl-indole, in words: 210° C.
Method: (§1) This study was carried out according to the GARDNER method, described in British Pat. No. 1,489,685.
(§2) The reference substance was 2-phenyl-indole, a well-known and widely used stabilizer.
(§3) The stabilizer (dihydropyridine or 2-phenyl-indole) and the other usual ingredients were mixed with powdered vinyl resins and the mixtures were calendered at a temperature of 160° C. to give rigid sheets.
(§4) The sheets were then heated in a thermostated oven (185° C. or 210° C.) for different intervals of time until incipient carbonization.
(§5) The coloration of the samples was compared to a standard scale of coloration, known as the GARDNER scale and was expressed in terms of the reference figures of the GARDNER scale.
(§6) This study was carried out with the following resin:
(§7) Polyvinyl chloride resin
(§8) SL 2016 is a solution of zinc-2-ethyl-hexanoate in a mixture of hydrocarbons boiling between 158° C. and 184° C.
The first trial was carried out at 210° C. with a resin containing 0.3 part by weight of stabilizer, the sheets being removed from the oven every three minutes over a period of 21 minutes.

[2] = Static thermostability (GARDNER method), rigid PVC sheets, 185° C., 0.3 part stabilizer
Method: as §1, §2, §3, §4, §5, §6, §7, §8
A second trial was performed at a temperature of 185° C., with a resin containing 0.3 part of stabilizer, the samples being removed from the oven every 6 minutes over a period of 24 minutes, then every 3 minutes until the 42nd minute (or until carbonization).

Row | Compound | coloration, GARDNER scale ([1]; 0 min) | coloration, GARDNER scale ([1]; 3 min) | thermostabilizing power compared to 2-phenyl-indole, in words [1] | coloration, GARDNER scale ([1]; 6 min) | coloration, GARDNER scale ([1]; 9 min) | coloration, GARDNER scale ([1]; 12 min) | coloration, GARDNER scale ([1]; 15 min) | coloration, GARDNER scale ([1]; 18 min) | coloration, GARDNER scale ([2]; 0 min) | coloration, GARDNER scale ([2]; 6 min) | coloration, GARDNER scale ([2]; 12 min) | coloration, GARDNER scale ([2]; 18 min) | coloration, GARDNER scale ([2]; 24 min) | coloration, GARDNER scale ([2]; 27 min) | coloration, GARDNER scale ([2]; 30 min) | coloration, GARDNER scale ([2]; 33 min) | coloration, GARDNER scale ([2]; 36 min) | coloration, GARDNER scale ([2]; 39 min) | coloration, GARDNER scale ([2]; 42 min) | coloration, GARDNER scale ([1]; 21 min)
1 | CC1=C(C(=O)OCCCl)CC(C(=O)OCCCl)=C(C)N1 [Compound 3, 2,6-Dimethyl-3,5-di-(2'-carbochloro-ethoxy)-1,4-dihydroyridine] | 1 | 1 | greatly superior to 2-phenyl-indole | 3 | 4 | 5 | 10.5 | Burnt | 1 | 1 | 5 | 8 | 10 | 10.5 | 13 | 14 | 18 | 18 | Burnt | 
2 | CC1=C(C(=O)OCc2ccc(Cl)cc2)CC(C(=O)OCc2ccc(Cl)cc2)=C(C)N1 [Compound 7, 2,6-Dimethyl-3,5-di-(4'carbochloro-benzyloxy)-1,4-dihydropyridine] | 1 | 1 |  | 2 | 4 | 10.5 | 14 | Burnt |  |  |  |  |  |  |  |  |  |  |  | 
3 | CCCCCCC1C(C(=O)OC)=C(C)NC(C)=C1C(=O)OC [Compound 8, 2,6-Dimethyl-3,5-dicarbomethoxy-4-hexyl-1,4-dihydropyridine] | 1 | 2 |  | 3 | 6 | 8 | 10.5 | 11 |  |  |  |  |  |  |  |  |  |  |  | Burnt
4 | CCOC(=O)C1=C(Cc2ccccc2)NC(Cc2ccccc2)=C(C(=O)OCC)C1 [Compound 16, 2,6-Dibenzyl-3,5-dicarbethoxy-1,4-dihydropyridine] | 1 | 1 | greatly superior to 2-phenyl-indole | 3 | 4 | 11 | 18 | Burnt |  |  |  |  |  |  |  |  |  |  |  | 
5 | C=CCCC1=C(C(=O)OC)CC(C(=O)OC)=C(CCC=C)N1 [Compound 17, 2,6-Di-(3-butenyl)-3,5-dicarbomethoxy-1,4-dihydropyridine] | 1 | 1 | greatly superior to 2-phenyl-indole | 2 | 8 | 9 | Burnt |  |  |  |  |  |  |  |  |  |  |  |  | 
6 | COC(=O)C1=C(c2ccccc2)NC(c2ccccc2)=C(C(=O)OC)C1 [Compound 18, 2,6-Diphenyl-3,5-dicarbomethoxy-1,4-dihydropyridine] | 1 | 1 |  | 2 | 2 | 2 | 3 | 6 |  |  |  |  |  |  |  |  |  |  |  | Burnt
7 | CC1=C(C(=O)OCCOCCCl)CC(C(=O)OCCOCCCl)=C(C)N1 [Compound 19, 2,6-Dimethyl-3,5-di-(2"-carbochloro-2'ethoxy-ethoxy)-1,4-dihydropyridine] | 1 | 1 |  | 1 | 2 | 3 | 10 | 13 |  |  |  |  |  |  |  |  |  |  |  | Burnt
8 | CCCCCCCCCCCCCC1=C(C(=O)OC)CC(C(=O)OC)=C(CCCCCCCCCCCCC)N1 [Compound 20, 2,6-Ditridecyl-3,5-dicarbomethoxy-1,4-dihydropyridine] | 1 | 1 |  | 1.5 | 2 | 2 | 2.5 | 4 |  |  |  |  |  |  |  |  |  |  |  | 7
9 | CC1=C(C(=O)OCC=Cc2ccccc2)CC(C(=O)OCC=Cc2ccccc2)=C(C)N1 [Compound 22, 2,6-Dimethyl-3,5-dicarbocinnamyloxy-1,4-dihydropyridine] | 1 | 1 |  | 2 | 4 | 11 | Burnt |  |  |  |  |  |  |  |  |  |  |  |  | 
10 | COC(=O)C1=C(C)NC(C)=C(C(=O)OC)C1c1ccccc1 [Compound 23, 2,6-Dimethyl-3,5-dicarbomethoxy-4-phenyl-1,4-dihydropyridine] | 1 | 2 |  | 3 | 13 | 14 | 15 | Burnt |  |  |  |  |  |  |  |  |  |  |  | 
11 | COCCOC(=O)C1=C(C)NC(C)=C(C(=O)OCCOC)C1 [Compound 25] | 1 | 1 |  | 1 | 1 | 1 | 4 | 11 |  |  |  |  |  |  |  |  |  |  |  | 17
12 | CCOCCOC(=O)C1=C(C)NC(C)=C(C(=O)OCCOCC)C1 [Compound 26] | 1 | 1 |  | 1 | 1 | 1.5 | 3 | 11 |  |  |  |  |  |  |  |  |  |  |  | Burnt

Source: US4317768A, “Dihydropyridine derivatives as stabilizers for vinyl chloride polymers” (priority 1977, dated 1982)
